Source: patent publication US10968203B2, “Pyrimidinyl-pyridyloxy-naphthyl compounds and methods of treating IRE1-related diseases and disorders” (Genentech, Inc., priority 2017, dated 2021)

tested on: XBP1s-luc 293 LUC; test: cellular PD assay, XBP1s-LUC reporter (Example 903); type: cell-based; conditions: Table 1; read-out: XBP1s-luc 293 LUC (IC50)
Procedure, shortened: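 A luciferase fusion, in frame and expressed only when the XBP1 transcript is spliced, served as the readout of cellular IRE1α activity in an XBP1-Luc reporter line.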

Row | Compound | IC50 [nM]
1 | Cc1cc(CNc2cccc3c(Oc4ncccc4-c4ccnc(N[C@H]5CCCNC5)n4)c(C)ccc23)no1 [Example 280, (S)-4-(2-((2-Methyl-5-(((5-methylisoxazol-3-yl)methyl)amino)naphthalen-1-yl)oxy)pyridin-3-yl)-N-(piperidin-3-yl)pyrimidin-2-amine] | 134
2 | Cc1ccc2c(NS(=O)(=O)C3CCCCC3)c(F)ccc2c1Oc1ncccc1-c1ccnc(N[C@H]2CCCNC2)n1 [Example 282, (S)—N-(2-Fluoro-6-methyl-5-((3-(2-(piperidin-3-ylamino)pyrimidin-4-yl)pyridin-2-yl)oxy)naphthalen-1-yl)cyclohexanesulfonamide] | 24.8
3 | Cc1ccc2c(NS(=O)(=O)Cc3ccccc3)c(F)ccc2c1Oc1ncccc1-c1ccnc(N[C@H]2CCCNC2)n1 [Example 283, (S)—N-(2-Fluoro-6-methyl-5-((3-(2-(piperidin-3-ylamino)pyrimidin-4-yl)pyridin-2-yl)oxy)naphthalen-1-yl)-1-phenylmethanesulfonamide] | 2.96
4 | Cc1ccc2c(Oc3ncccc3-c3ccnc(N[C@H]4CCCNC4)n3)c(C)ccc2c1NC(=O)C1CC1 [Example 284, (S)—N-(2,6-Dimethyl-5-((3-(2-(piperidin-3-ylamino)pyrimidin-4-yl)pyridin-2-yl)oxy)Naphthalen-1-yl)cyclopropanecarboxamide] | 98.2
5 | CCCS(=O)(=O)Nc1c(C)ccc2c(Oc3ncccc3-c3ccnc(N[C@H]4CCCNC4)n3)c(C)ccc12 [Example 285, (S)—N-(2,6-Dimethyl-5-((3-(2-(piperidin-3-ylamino)pyrimidin-4-yl)pyridin-2-yl)oxy)Naphthalen-1-yl)propane-1-sulfonamide] | 71
6 | Cc1ccc2c(NC(=O)CC3CC4CCC3C4)cccc2c1Oc1ncccc1-c1ccnc(N[C@H]2CCCNC2)n1 (stereo partly drawn) [Example 286, 2-(Bicyclo[2.2.1]heptan-2-yl)-N-(6-methyl-5-((3-(2-((S)-piperidin-3-ylamino)pyrimidin-4-yl)pyridin-2-yl)oxy)naphthalen-1-yl)acetamide] | 174
7 | CCc1cnn(-c2cccc3c(Oc4ncccc4-c4ccnc(N[C@H]5CCCNC5)n4)c(C)ccc23)c1 [Example 290, (S)-4-(2-((5-(4-Ethyl-1H-pyrazol-1-yl)-2-methylnaphthalen-1-yl)oxy)pyridin-3-yl)-N-(piperidin-3-yl)pyrimidin-2-amine] | 409
8 | Cc1ccc2c(NC(=O)[C@@H]3C[C@H]3C(F)F)cccc2c1Oc1ncccc1-c1ccnc(N[C@H]2CCCNC2)n1 [Example 293, (1R,2R)-2-(Difluoromethyl)-N-(6-methyl-5-((3-(2-(((S)-piperidin-3-yl)amino)pyrimidin-4-yl)pyridin-2-yl)oxy)naphthalen-1-yl)cyclopropane-1-carboxamide] | 90.5
9 | Cc1nc(CNc2cccc3c(Oc4ncccc4-c4ccnc(N[C@H]5CCCNC5)n4)c(C)ccc23)c(C)s1 [Example 294, (S)-4-(2-((5-(((2,5-Dimethylthiazol-4-yl)methyl)amino)-2-methylnaphthalen-1-yl)oxy)pyridin-3-yl)-N-(piperidin-3-yl)pyrimidin-2-amine] | 241
10 | Cc1ccc2c(NCc3ccccn3)c(F)ccc2c1Oc1ncccc1-c1ccnc(N[C@H]2CCCNC2)n1 [Example 296, (S)-4-(2-((6-Fluoro-2-methyl-5-((pyridin-2-ylmethyl)amino)naphthalen-1-yl)oxy)pyridin-3-yl)-N-(piperidin-3-yl)pyrimidin-2-amine] | 220
11 | Cc1ccc2c(N3CCC4(CC4)C3=O)cccc2c1Oc1ncccc1-c1ccnc(N[C@H]2CCCNC2)n1 [Example 297, (S)-5-(6-Methyl-5-((3-(2-(piperidin-3-ylamino)pyrimidin-4-yl)pyridin-2-yl)oxy)naphthalen-1-yl)-5-azaspiro[2.4]heptan-4-one] | 173
12 | Cc1ccc2c(NC[C@@H](O)C(F)(F)F)cccc2c1Oc1ncccc1-c1ccnc(N[C@H]2CCCNC2)n1 [Example 298, (R)-1,1,1-Trifluoro-3-((6-methyl-5-((3-(2-((S)-piperidin-3-ylamino)pyrimidin-4-yl)pyridin-2-yl)oxy)naphthalen-1-yl)amino)propan-2-ol] | 67.2
13 | Cc1ccc2c(NC[C@H](O)C(F)(F)F)cccc2c1Oc1ncccc1-c1ccnc(N[C@H]2CCCNC2)n1 [Example 299] | 8.58
14 | Cc1ccc2c(NC[C@@H](C)O)cccc2c1Oc1ncccc1-c1ccnc(N[C@H]2CCCNC2)n1 [Example 300, (R)-1-((6-Methyl-5-((3-(2-((S)-piperidin-3-ylamino)pyrimidin-4-yl)pyridin-2-yl)oxy)naphthalen-1-yl)amino)propan-2-ol] | 55.4
15 | Cc1ccc2c(NC[C@H](C)O)cccc2c1Oc1ncccc1-c1ccnc(N[C@H]2CCCNC2)n1 [Example 301, (S)-1-((6-Methyl-5-((3-(2-((S)-piperidin-3-ylamino)pyrimidin-4-yl)pyridin-2-yl)oxy)naphthalen-1-yl)amino)propan-2-ol] | 424
16 | Cc1ccc2c(NC(=O)CC(C)(C)C)cccc2c1Oc1ncccc1-c1ccnc(N[C@@H]2CNC[C@H](C)C2)n1 [Example 302, 3,3-Dimethyl-N-(6-methyl-5-((3-(2-(((3S,5R)-5-methylpiperidin-3-yl)amino)pyrimidin-4-yl)pyridin-2-yl)oxy)naphthalen-1-yl)butanamide] | 93.5
17 | Cc1ccc2c(NC(=O)CC3CCCCC3)cccc2c1Oc1ncccc1-c1ccnc(N[C@@H]2CNC[C@H](C)C2)n1 [Example 303, 2-Cyclohexyl-N-(6-methyl-5-((3-(2-(((3S,5R)-5-methylpiperidin-3-yl)amino)pyrimidin-4-yl)pyridin-2-yl)oxy)naphthalen-1-yl)acetamide] | 126
18 | Cc1ccc2c(NS(=O)(=O)CC(C)C)cccc2c1Oc1ncccc1-c1ccnc(N[C@@H]2CNC[C@H](C)C2)n1 [Example 304, 2-Methyl-N-(6-methyl-5-((3-(2-(((3S,5R)-5-methylpiperidin-3-yl)amino)pyrimidin-4-yl)pyridin-2-yl)oxy)naphthalen-1-yl)propane-1-sulfonamide] | 105
19 | CCCS(=O)(=O)Nc1cccc2c(Oc3ncccc3-c3ccnc(N[C@H]4CCCNC4)n3)c(F)ccc12 [Example 305, (S)—N-(6-Fluoro-5-((3-(2-(piperidin-3-ylamino)pyrimidin-4-yl)pyridin-2-yl)oxy)naphthalen-1-yl)propane-1-sulfonamide] | 481
20 | Cc1ccc2c(NCC(C)(C)O)cccc2c1Oc1ncccc1-c1ccnc(N[C@H]2CCCNC2)n1 [Example 306, (S)-2-Methyl-1-((6-methyl-5-((3-(2-(piperidin-3-ylamino)pyrimidin-4-yl)pyridin-2-yl)oxy)naphthalen-1-yl)amino)propan-2-ol] | 240
21 | Cc1nc(CNc2c(F)ccc3c(Oc4ncccc4-c4ccnc(N[C@@H]5CNC[C@H](C)C5)n4)c(C)ccc23)cs1 [Example 307, 4-(2-((6-Fluoro-2-methyl-5-(((2-methylthiazol-4-yl)methyl)amino)naphthalen-1-yl)oxy)pyridin-3-yl)-N-((3S,5R)-5-methylpiperidin-3-yl)pyrimidin-2-amine] | 360
22 | Cc1ccc2c(N3CCC4(CCCCC4)C3=O)cccc2c1Oc1ncccc1-c1ccnc(N[C@H]2CCCNC2)n1 [Example 308, (S)-2-(6-Methyl-5-((3-(2-(piperidin-3-ylamino)pyrimidin-4-yl)pyridin-2-yl)oxy)naphthalen-1-yl)-2-azaspiro[4.5]decan-1-one] | 211
23 | Cc1ccc2c(NC[C@H](O)c3ccccc3)cccc2c1Oc1ncccc1-c1ccnc(N[C@H]2CCCNC2)n1 [Example 309, (R)-2-((6-Methyl-5-((3-(2-((S)-piperidin-3-ylamino)pyrimidin-4-yl)pyridin-2-yl)oxy)naphthalen-1-yl)amino)-1-phenylethanol] | 433
24 | Cc1ccc2c(NC(=O)C3CC3)c(F)ccc2c1Oc1ncccc1-c1ccnc(N[C@@H]2CNC[C@H](C)C2)n1 [Example 310, N-(2-Fluoro-6-methyl-5-((3-(2-(((3S,5R)-5-methylpiperidin-3-yl)amino)pyrimidin-4-yl)pyridin-2-yl)oxy)naphthalen-1-yl)cyclopropanecarboxamide] | 135
25 | Cc1ccc2c(NS(=O)(=O)CCC(F)(F)F)c(F)ccc2c1Oc1ncccc1-c1ccnc(N[C@@H]2CNC[C@H](C)C2)n1 [Example 311, 3,3,3-Trifluoro-N-(2-fluoro-6-methyl-5-((3-(2-(((3S,5R)-5-methylpiperidin-3-yl)amino)pyrimidin-4-yl)pyridin-2-yl)oxy)naphthalen-1-yl)propane-1-sulfonamide] | 6.16
26 | CC[C@@H](O)CNc1cccc2c(Oc3ncccc3-c3ccnc(N[C@H]4CCCNC4)n3)c(C)ccc12 [Example 312, (R)-1-((6-Methyl-5-((3-(2-((S)-piperidin-3-ylamino)pyrimidin-4-yl)pyridin-2-yl)oxy)naphthalen-1-yl)amino)butan-2-ol] | 27.4
27 | CC[C@H](O)CNc1cccc2c(Oc3ncccc3-c3ccnc(N[C@H]4CCCNC4)n3)c(C)ccc12 [Example 313, (S)-1-((6-Methyl-5-((3-(2-((S)-piperidin-3-ylamino)pyrimidin-4-yl)pyridin-2-yl)oxy)naphthalen-1-yl)amino)butan-2-ol] | 148
28 | COC(=O)CNc1cccc2c(Oc3ncccc3-c3ccnc(N[C@H]4CCCNC4)n3)c(C)ccc12 [Example 314, (S)-Methyl 2-((6-methyl-5-((3-(2-(piperidin-3-ylamino)pyrimidin-4-yl)pyridin-2-yl)oxy)naphthalen-1-yl)amino)acetate] | 208
29 | Cc1ccc2c(N3CC[C@@H](CF)C3=O)cccc2c1Oc1ncccc1-c1ccnc(N[C@H]2CCCNC2)n1 [Example 315, (R)-3-(Fluoromethyl)-1-(6-methyl-5-((3-(2-(((S)-piperidin-3-yl)amino)pyrimidin-4-yl)pyridin-2-yl)oxy)naphthalen-1-yl)pyrrolidin-2-one] | 471
30 | Cc1ccc2c(N3CC[C@H](CF)C3=O)cccc2c1Oc1ncccc1-c1ccnc(N[C@H]2CCCNC2)n1 [Example 316, (S)-3-(Fluoromethyl)-1-(6-methyl-5-((3-(2-(((S)-piperidin-3-yl)amino)pyrimidin-4-yl)pyridin-2-yl)oxy)naphthalen-1-yl)pyrrolidin-2-one] | 213
